Laboratory results taken from patent US5912247A, “Quinazoline compound and anti-tumor agent containing said compound as an active ingredient” (Kanebo, Ltd., priority 1995, dated 1999).
Structures can show the parent of a compound that is named as a salt.

Tested on: Colon 26 solid tumor
Assay: Inhibitory activity of dye accumulation in the solid tumor tissue (inhibition of the tumor blood flow)
Assay type: in vivo, Male BALB/c mice
Design: key to Inhibitory activity of dye accumulation into solid tumor: +: The average absorbance in the test group is significantly smaller than the average absorbance in the control group.; -: There is no significant difference in the average absorbance between the test group and the control group
Conditions: intravenous, Evans blue 1 hour after administration
Method: Inhibitory activity of dye accumulation in the solid tumor tissue (inhibition of the tumor blood flow): a) Materials: Test Animal: Male BALB/c mice (weighing 21-27 g, six mice per group) Tumor: Colon 26 solid tumor b) Test Method: Colon 26 solid tumor was cut in a size of about 1 mm square. The pieces of solid tumor were treated with a 0.25% collagenase solution and 0.02% deoxyribonuclease solution at 37° C. for 1.5 hour to give a cell suspension of colon 26 solid tumor cells. The cell suspension was adjusted to 3×10^6 cells/ml and the cell suspension (100 μl) was subcutaneously inoculated on the right back of male BALB/c mice. Ten days after the transplantation, the longitudinal size of the tumor was measured, and when the longitudinal size of the tumor reached about 10 mm, the mice were randomized. To the mice in test groups, the test compound was intravenously administered in an amount of 10 mg/kg or 1.25 mg/kg. The test compound was administered in the form of a solution in saline (in the test solution of Test Compound BF and BK, an equimolar amount of fumaric acid was further added, and in the test solution of Test Compound BN, an equimolar amount of hydrochloric acid was further added). To the mice in the control group, only saline was administered intravenously. One hour after the administration, 3% Evans blue-saline solution was injected intravenously via the tail vein of the mice in a volume of 0.1 ml per 10 g of the body weight of mouse, and 5 minutes later the mice were killed by luxation of the cervical vertebrae. After removing the tumor, the tumor was weighed. To extract Evans blue, the tumor was suspensed in 0.5% aqueous sodium sulfate (1.5 ml per 1 g of the tumor) and acetone (3.5 ml per 1 g of tumor), and then the tumor was cut into small pieces. After allowing to stand at room temperature overnight, the suspension were centrifuged at 3,000 rpm for 10 minutes to extract Evans blue, and the absorbance of the supernatant was read at 630 nm. […] (-): There is no significant difference in the average absorbance between the test group and the control group.

Compound: CC(=O)O.OCCOc1nc(N2CCNCC2)nc2ccccc12 [Compound BA, 4-[(2-Hydroxyethyl)oxy]-2-(1-piperazinyl)-quinazoline monoacetate]
- Inhibitory activity of dye accumulation into solid tumor (1.25 mg/kg): +
- Inhibitory activity of dye accumulation into solid tumor (10 mg/kg): +

Compound: Cl.OC[C@@H](O)CCOc1nc(N2CCNCC2)nc2ccccc12 [Compound BI, 4-[(3S)-(3,4-Dihydroxybutan-1-yl)oxy]-2-(1-piperazinyl)quinazoline monohydrochloride]
- Inhibitory activity of dye accumulation into solid tumor (1.25 mg/kg): +
- Inhibitory activity of dye accumulation into solid tumor (10 mg/kg): +

Compound: O[C@@H]1C[C@H](Oc2nc(N3CCNCC3)nc3ccccc23)C[C@@H]1O [Compound AN, 4-[(c-3,c-4-Dihydroxycyclopentan-r-1-yl)oxy]-2-(1-piperazinyl)quinazoline monohydrochloride]
- Inhibitory activity of dye accumulation into solid tumor (1.25 mg/kg): +
- Inhibitory activity of dye accumulation into solid tumor (10 mg/kg): +

Compound: O[C@@H]1[C@@H](Oc2nc(N3CCNCC3)nc3ccccc23)CC[C@@H]1O (relative stereo) [Compound AL, 4-[(t-2,t-3-Dihydroxycyclopentan-r-1-yl)oxy]-2-(1-piperazinyl)quinazoline monoacetate]
- Inhibitory activity of dye accumulation into solid tumor (1.25 mg/kg): +
- Inhibitory activity of dye accumulation into solid tumor (10 mg/kg): +

Compound: O[C@@H]1[C@H](O)[C@@H](Oc2nc(N3CCNCC3)nc3ccccc23)C[C@H]1O [Compound AP, 4-[(1S,2S,3S,4R)-(2,3,4-Trihydroxycyclopentan-1-yl)oxy]-2-(1-piperazinyl)quinazoline 1/2 fumarate]
- Inhibitory activity of dye accumulation into solid tumor (1.25 mg/kg): +
- Inhibitory activity of dye accumulation into solid tumor (10 mg/kg): +

Compound: Cl.OC[C@@H](O)[C@H](O)COc1nc(N2CCNCC2)nc2ccccc12 [Compound BM, 4-[(2R,3R)-(2,3,4-Trihydroxybutan-1-yl)oxy]-2-(1-piperazinyl)quinazoline monohydrochloride]
- Inhibitory activity of dye accumulation into solid tumor (1.25 mg/kg): +
- Inhibitory activity of dye accumulation into solid tumor (10 mg/kg): +

Compound: CC(=O)O.C[C@H](O)[C@@H](C)Oc1nc(N2CCNCC2)nc2ccccc12 (racemic) [Compound BC, 4-[(2RS,3SR)-(3-Hydroxybutan-2-yl)oxy]-2-(1-piperazinyl)quinazoline monoacetate]
- Inhibitory activity of dye accumulation into solid tumor (1.25 mg/kg): +
- Inhibitory activity of dye accumulation into solid tumor (10 mg/kg): +

Compound: Cl.OC[C@H](O)[C@@H](O)COc1nc(N2CCNCC2)nc2ccccc12 [Compound BL, 4-[(2S,3S)-(2,3,4-Trihydroxybutan-1-yl)oxy]-2-(1-piperazinyl)quinazoline monohydrochloride]
- Inhibitory activity of dye accumulation into solid tumor (1.25 mg/kg): +
- Inhibitory activity of dye accumulation into solid tumor (10 mg/kg): +

Compound: O[C@@H]1[C@H](O)[C@@H](O)C[C@H]1Oc1nc(N2CCNCC2)nc2ccccc12 [Compound AQ, 4-[(1R,2R,3R,4S)-(2,3,4-Trihydroxycyclopentan-1-yl)oxy]-2-(1-piperazinyl)quinazoline 1/2 fumarate]
- Inhibitory activity of dye accumulation into solid tumor (1.25 mg/kg): +
- Inhibitory activity of dye accumulation into solid tumor (10 mg/kg): +

Compound: O[C@@H]1COC[C@H]1Oc1nc(N2CCNCC2)nc2ccccc12 [Compound AJ, 4-[(3R,4R)-(4-Hydroxytetrahydrofuran-3-yl)-oxy]-2-(1-piperazinyl)quinazoline 1/2 hydrochloride]
- Inhibitory activity of dye accumulation into solid tumor (1.25 mg/kg): +
- Inhibitory activity of dye accumulation into solid tumor (10 mg/kg): +

Compound: CC(=O)O.C[C@@H](O)[C@@H](C)Oc1nc(N2CCNCC2)nc2ccccc12 [Compound BE, 4-[(2R,3R)-(3-Hydroxybutan-2-yl)oxy]-2-(1-piperazinyl)quinazoline monoacetate]
- Inhibitory activity of dye accumulation into solid tumor (10 mg/kg): +

Compound: CC(=O)O.C[C@H](O)[C@H](C)Oc1nc(N2CCNCC2)nc2ccccc12 [Compound BD, 4-[(2S,3S)-(3-Hydroxybutan-2-yl)oxy]-2-(1-piperazinyl)quinazoline monoacetate]
- Inhibitory activity of dye accumulation into solid tumor (10 mg/kg): +

Compound: O[C@H]1CCC[C@@H]1Oc1nc(N2CCNCC2)nc2ccccc12 [Compound AD, 4-[(1S,2S)-(2-Hydroxycyclopentan-1-yl)oxy]-2-(1-piperazinyl)quinazolinemonoacetate]
- Inhibitory activity of dye accumulation into solid tumor (1.25 mg/kg): +
- Inhibitory activity of dye accumulation into solid tumor (10 mg/kg): +

Compound: CC(=O)O.O[C@H]1CCC[C@H]1Oc1nc(N2CCNCC2)nc2ccccc12 (relative stereo) [Compound AB, 4-[cis-(2-Hydroxycyclopentan-1-yl)oxy]-2-(1-piperazinyl)quinazoline monoacetate]
- Inhibitory activity of dye accumulation into solid tumor (1.25 mg/kg): -
- Inhibitory activity of dye accumulation into solid tumor (10 mg/kg): +

Compound: OC[C@H](O)[C@H](O)COc1nc(N2CCNCC2)nc2ccccc12 (racemic) [Compound BK, 4-[(2RS,3SR)-(2,3,4-Trihydroxybutan-1-yl)oxy]-2-(1-piperazinyl)quinazoline]
- Inhibitory activity of dye accumulation into solid tumor (1.25 mg/kg): +
- Inhibitory activity of dye accumulation into solid tumor (10 mg/kg): +

Compound: Cl.O[C@@H]1COC[C@H]1Oc1nc(N2CCNCC2)nc2ccccc12 [Compound AK, 4-[(3R,4R)-(4-Hydroxytetrahydrofuran-3-yl)-oxy]-2-(1-piperazinyl)quinazoline monohydrochloride]
- Inhibitory activity of dye accumulation into solid tumor (1.25 mg/kg): +
- Inhibitory activity of dye accumulation into solid tumor (10 mg/kg): +

Compound: CC(=O)O.O[C@@H]1CCC[C@H]1Oc1nc(N2CCNCC2)nc2ccccc12 (relative stereo) [Compound AA, 4-[trans-(2-Hydroxycyclopentan-1-yl)oxy]-2-(1-piperazinyl)quinazoline monoacetate]
- Inhibitory activity of dye accumulation into solid tumor (1.25 mg/kg): +
- Inhibitory activity of dye accumulation into solid tumor (10 mg/kg): +

Compound: CC(=O)O.OCC(O)COc1nc(N2CCNCC2)nc2ccccc12 (racemic) [Compound BB, 4-[(RS)-(2,3-Dihydroxypropyl)oxy]-2-(1-piperazinyl)quinazoline monoacetate]
- Inhibitory activity of dye accumulation into solid tumor (1.25 mg/kg): +
- Inhibitory activity of dye accumulation into solid tumor (10 mg/kg): +

Compound: C[C@@H](O)[C@H](O)COc1nc(N2CCNCC2)nc2ccccc12.Cl [Compound BH, 4-[(2R,3R)-(2,3-Dihydroxybutan-1-yl)oxy]-2-(1-piperazinyl)quinazoline monohydrochloride]
- Inhibitory activity of dye accumulation into solid tumor (1.25 mg/kg): +
- Inhibitory activity of dye accumulation into solid tumor (10 mg/kg): +

Compound: O[C@@H]1COC[C@@H]1Oc1nc(N2CCNCC2)nc2ccccc12 (relative stereo) [Compound AG, 4-[cis-(4-Hydroxytetrahydrofuran-3-yl)oxy]-2-(1-piperazinyl)quinazolinemonoacetate]
- Inhibitory activity of dye accumulation into solid tumor (1.25 mg/kg): +
- Inhibitory activity of dye accumulation into solid tumor (10 mg/kg): +

Compound: CC(=O)O.O[C@H]1COC[C@@H]1Oc1nc(N2CCNCC2)nc2ccccc12 [Compound AH, 4-[(3S,4S)-(4-Hydroxytetrahydrofuran-3-yl)oxy]-2-(1-piperazinyl)quinazoline monoacetate]
- Inhibitory activity of dye accumulation into solid tumor (1.25 mg/kg): +
- Inhibitory activity of dye accumulation into solid tumor (10 mg/kg): +

Compound: CO[C@H]1C[C@@H](Oc2nc(N3CCNCC3)nc3ccccc23)[C@H](O)[C@@H]1O.Cl [Compound AT, 4-[(1R,2R,3S,4S)-(2,3-Dihydroxy-4-methoxy-cyclopentan-1-yl)oxy]-2-(1-piperazinyl)quinazoline mono-hydrochloride]
- Inhibitory activity of dye accumulation into solid tumor (1.25 mg/kg): +
- Inhibitory activity of dye accumulation into solid tumor (10 mg/kg): +

Compound: OC[C@@H](O)COc1nc(N2CCNCC2)nc2ccccc12 [Compound BN, 4-[(2R)-(2,3-Dihydroxypropan-1-yl)oxy]-2-(1-piperazinyl)quinazoline]
- Inhibitory activity of dye accumulation into solid tumor (1.25 mg/kg): +

Compound: CO[C@H]1C[C@@H](Oc2nc(N3CCNCC3)nc3ccccc23)[C@H](O)[C@@H]1O [Compound AS, 4-[(1R,2R,3S,4S)-(2,3-Dihydroxy-4-methoxy-cyclopentan-1-yl)oxy]-2-(1-piperazinyl)quinazoline 1/2 fumarate]
- Inhibitory activity of dye accumulation into solid tumor (1.25 mg/kg): +
- Inhibitory activity of dye accumulation into solid tumor (10 mg/kg): +

Compound: O[C@@H]1[C@H](O)[C@@H](Oc2nc(N3CCNCC3)nc3ccccc23)C[C@H]1O (relative stereo) [Compound AO, 4-[(t-2,t-3,c-4-Trihydroxycyclopentan-r-1-yl)-oxy]-2-(1-piperazinyl)quinazoline 1/2 fumarate]
- Inhibitory activity of dye accumulation into solid tumor (1.25 mg/kg): +
- Inhibitory activity of dye accumulation into solid tumor (10 mg/kg): +

Compound: C[C@H](O)[C@@H](O)COc1nc(N2CCNCC2)nc2ccccc12.Cl [Compound BG, 4-[(2S,3S)-(2,3-Dihydroxybutan-1-yl)oxy]-2-(1-piperazinyl)quinazoline monohydrochloride]
- Inhibitory activity of dye accumulation into solid tumor (1.25 mg/kg): +
- Inhibitory activity of dye accumulation into solid tumor (10 mg/kg): +

Compound: CC(=O)O.OC1CCC(Oc2nc(N3CCNCC3)nc3ccccc23)C1 (stereo not drawn) [Compound AC, 4-[(3-Hydroxycyclopentan-1-yl)oxy]-2-(1-piperazinyl)quinazoline monoacetate]
- Inhibitory activity of dye accumulation into solid tumor (1.25 mg/kg): +
- Inhibitory activity of dye accumulation into solid tumor (10 mg/kg): +
